In brackets after ≈: the same amount, converted by molar mass.
What was measured:
Assay type in all cases: functional
[1] = system: Escherichia coli; test: Antibacterial activity against Escherichia coli ATCC 25922 assessed as inhibition of bacterial growth measured after 24 hrs incubation
[2] = system: Acinetobacter baumannii; test: Antibacterial activity against Acinetobacter baumannii assessed as inhibition of bacterial growth measured after 24 hrs incubation
[3] = system: Pseudomonas aeruginosa; test: Antibacterial activity against Pseudomonas aeruginosa ATCC 27853 assessed as inhibition of bacterial growth measured after 24 hrs incubation
[4] = system: Escherichia coli; test: Antibacterial activity against Escherichia coli assessed as inhibition of bacterial growth measured after 24 hrs incubation
[5] = system: Staphylococcus aureus; test: Antibacterial activity against methicillin-resistant Staphylococcus aureus N315 assessed as inhibition of bacterial growth measured after 24 hrs incubation
[6] = system: Staphylococcus aureus; test: Antibacterial activity against Staphylococcus aureus ATCC 25923 assessed as inhibition of bacterial growth measured after 24 hrs incubation
[7] = system: Klebsiella pneumoniae; test: Antibacterial activity against Klebsiella pneumonia assessed as inhibition of bacterial growth measured after 24 hrs incubation
[8] = system: Pseudomonas aeruginosa; test: Antibacterial activity against Pseudomonas aeruginosa assessed as inhibition of bacterial growth measured after 24 hrs incubation
[9] = system: Staphylococcus aureus; test: Antibacterial activity against Staphylococcus aureus assessed as inhibition of bacterial growth measured after 24 hrs incubation
[10] = system: Staphylococcus aureus; test: Antibacterial activity against Staphylococcus aureus ATCC 29213 assessed as inhibition of bacterial growth measured after 24 hrs incubation
[11] = system: Enterococcus faecalis; test: Antibacterial activity against Enterococcus faecalis assessed as inhibition of bacterial growth measured after 24 hrs incubation

Row | SMILES | MIC [1] [µg/mL] | MIC [2] [µg/mL] | MIC [3] [µg/mL] | MIC [4] [µg/mL] | MIC [5] [µg/mL] | MIC [6] [µg/mL] | MIC [7] [µg/mL] | MIC [8] [µg/mL] | MIC [9] [µg/mL] | MIC [10] [µg/mL] | MIC [11] [µg/mL]
1 | CCn1cc(/C=C(\C#N)C(=O)N2CCN(c3cc4c(cc3F)c(=O)c(C(=O)O)cn4CC)CC2)c2ccccc21 | 2 (≈ 3.69 µM) | 1 (≈ 1.85 µM) | 1 (≈ 1.85 µM) | 64 (≈ 118 µM) | 0.25 (≈ 0.462 µM) | 0.25 (≈ 0.462 µM) | 0.25 (≈ 0.462 µM) | 4 (≈ 7.39 µM) | 0.25 (≈ 0.462 µM) | 0.25 (≈ 0.462 µM) | 0.5 (≈ 0.923 µM)
2 | CCCCCn1cc(/C=C(\C#N)C(=O)N2CCN(c3cc4c(cc3F)c(=O)c(C(=O)O)cn4CC)CC2)c2ccccc21 | 4 (≈ 6.85 µM) | 2 (≈ 3.43 µM) | 0.5 (≈ 0.857 µM) | 2 (≈ 3.43 µM) | 16 (≈ 27.4 µM) | 1 (≈ 1.71 µM) | 0.5 (≈ 0.857 µM) | 4 (≈ 6.85 µM) | 32 (≈ 54.8 µM) | 8 (≈ 13.7 µM) | 8 (≈ 13.7 µM)
3 | CCn1cc(C(=O)O)c(=O)c2cc(F)c(N3CCN(C(=O)/C(C#N)=C/c4cn(Cc5cccc(F)c5)c5ccccc45)CC3)cc21 | 0.25 (≈ 0.402 µM) | 0.5 (≈ 0.804 µM) | 1 (≈ 1.61 µM) | 0.25 (≈ 0.402 µM) | 16 (≈ 25.7 µM) | 16 (≈ 25.7 µM) | 1 (≈ 1.61 µM) | 2 (≈ 3.22 µM) | 32 (≈ 51.5 µM) | 8 (≈ 12.9 µM) | 16 (≈ 25.7 µM)
4 | CCn1cc(C(=O)O)c(=O)c2cc(F)c(N3CCN(C(=O)/C(C#N)=C/c4cn(CCN5CCOCC5)c5ccccc45)CC3)cc21 | 2 (≈ 3.19 µM) | 0.5 (≈ 0.798 µM) | 1 (≈ 1.6 µM) | 1 (≈ 1.6 µM) | 0.25 (≈ 0.399 µM) | 4 (≈ 6.38 µM) | 2 (≈ 3.19 µM) | 1 (≈ 1.6 µM) | 0.5 (≈ 0.798 µM) | 0.5 (≈ 0.798 µM) | 0.25 (≈ 0.399 µM)
5 | CCn1cc(C(=O)O)c(=O)c2cc(F)c(N3CCN(C(=O)/C(C#N)=C/c4c[nH]c5cc(F)ccc45)CC3)cc21 | 2 (≈ 3.76 µM) | 2 (≈ 3.76 µM) | 1 (≈ 1.88 µM) | 4 (≈ 7.53 µM) | 8 (≈ 15.1 µM) | 4 (≈ 7.53 µM) | 0.5 (≈ 0.941 µM) | 1 (≈ 1.88 µM) | 1 (≈ 1.88 µM) | 2 (≈ 3.76 µM) | 8 (≈ 15.1 µM)
6 | CCn1cc(C(=O)O)c(=O)c2cc(F)c(N3CCN(C(=O)/C(C#N)=C/c4cn(CC#N)c5ccccc45)CC3)cc21 | 2 (≈ 3.62 µM) | 1 (≈ 1.81 µM) | 0.5 (≈ 0.905 µM) | 2 (≈ 3.62 µM) | 2 (≈ 3.62 µM) | 0.5 (≈ 0.905 µM) | 0.5 (≈ 0.905 µM) | 0.5 (≈ 0.905 µM) | 4 (≈ 7.24 µM) | 1 (≈ 1.81 µM) | 1 (≈ 1.81 µM)
7 | CCCCCCCCn1cc(/C=C(\C#N)C(=O)N2CCN(c3cc4c(cc3F)c(=O)c(C(=O)O)cn4CC)CC2)c2ccccc21 | 4 (≈ 6.39 µM) | 8 (≈ 12.8 µM) | 32 (≈ 51.1 µM) | 64 (≈ 102 µM) | 0.5 (≈ 0.799 µM) | 0.25 (≈ 0.4 µM) | 2 (≈ 3.2 µM) | 16 (≈ 25.6 µM) | 1 (≈ 1.6 µM) | 1 (≈ 1.6 µM) | 1 (≈ 1.6 µM)
8 | CCn1cc(C(=O)O)c(=O)c2cc(F)c(N3CCN(C(=O)/C(C#N)=C/c4cn(Cc5ccccc5F)c5ccccc45)CC3)cc21 | 0.25 (≈ 0.402 µM) | 0.5 (≈ 0.804 µM) | 0.5 (≈ 0.804 µM) | 0.5 (≈ 0.804 µM) | 0.25 (≈ 0.402 µM) | 16 (≈ 25.7 µM) | 1 (≈ 1.61 µM) | 1 (≈ 1.61 µM) | 32 (≈ 51.5 µM) | 32 (≈ 51.5 µM) | 16 (≈ 25.7 µM)
9 | CCn1cc(C(=O)O)c(=O)c2cc(F)c(N3CCN(C(=O)/C(C#N)=C/c4c[nH]c5cccc(Cl)c45)CC3)cc21 | 2 (≈ 3.65 µM) | 2 (≈ 3.65 µM) | 1 (≈ 1.82 µM) | 4 (≈ 7.3 µM) | 8 (≈ 14.6 µM) | 4 (≈ 7.3 µM) | 0.5 (≈ 0.912 µM) | 32 (≈ 58.4 µM) | 1 (≈ 1.82 µM) | 2 (≈ 3.65 µM) | 8 (≈ 14.6 µM)
10 | CCCCCCn1cc(/C=C(\C#N)C(=O)N2CCN(c3cc4c(cc3F)c(=O)c(C(=O)O)cn4CC)CC2)c2ccccc21 | 2 (≈ 3.35 µM) | 16 (≈ 26.8 µM) | 0.5 (≈ 0.837 µM) | 0.5 (≈ 0.837 µM) | 0.5 (≈ 0.837 µM) | 64 (≈ 107 µM) | 1 (≈ 1.67 µM) | 16 (≈ 26.8 µM) | 0.5 (≈ 0.837 µM) | 4 (≈ 6.69 µM) | 32 (≈ 53.5 µM)
11 | CCn1cc(C(=O)O)c(=O)c2cc(F)c(N3CCN(C(=O)/C(C#N)=C/c4cn(CC(=O)N5CCOCC5)c5ccccc45)CC3)cc21 | 0.5 (≈ 0.78 µM) | 0.5 (≈ 0.78 µM) | 0.25 (≈ 0.39 µM) | 0.5 (≈ 0.78 µM) | 2 (≈ 3.12 µM) | 2 (≈ 3.12 µM) | 1 (≈ 1.56 µM) | 1 (≈ 1.56 µM) | 8 (≈ 12.5 µM) | 4 (≈ 6.24 µM) | 1 (≈ 1.56 µM)
12 | CCn1cc(C(=O)O)c(=O)c2cc(F)c(N3CCN(C(=O)/C(C#N)=C/c4c[nH]c5c(C)cccc45)CC3)cc21 | 2 (≈ 3.79 µM) | 2 (≈ 3.79 µM) | 1 (≈ 1.9 µM) | 1 (≈ 1.9 µM) | 4 (≈ 7.58 µM) | 4 (≈ 7.58 µM) | 0.5 (≈ 0.948 µM) | 4 (≈ 7.58 µM) | 4 (≈ 7.58 µM) | 4 (≈ 7.58 µM) | 4 (≈ 7.58 µM)
13 | CCn1cc(C(=O)O)c(=O)c2cc(F)c(N3CCN(C(=O)/C(C#N)=C/c4cn(CC5CCCC5)c5ccccc45)CC3)cc21 | 1 (≈ 1.68 µM) | 16 (≈ 26.9 µM) | 1 (≈ 1.68 µM) | 4 (≈ 6.72 µM) | 32 (≈ 53.7 µM) | 1 (≈ 1.68 µM) | 0.5 (≈ 0.839 µM) | 0.5 (≈ 0.839 µM) | 16 (≈ 26.9 µM) | 2 (≈ 3.36 µM) | 8 (≈ 13.4 µM)

— ChEMBL document CHEMBL5512655, “Discovery of indolylacryloyl-derived oxacins as novel potential broad-spectrum antibacterial candidates” (Eur J Med Chem, 2024)
